Values quoted from earlier work as cited in PMC11920646 (Frontiers in Pharmacology, 2025).

How the values were obtained:
[1] = system: IL-6 release in A549 cells; parameters: method as in Hu et al., 2011; conditions: dagrocorat study ref Hu et al., 2011; cited from earlier work
[2] = system: IFN-γ release in human whole blood; parameters: method as in Hu et al., 2011; conditions: at concentrations each of 100–1000 nM ref Hu et al., 2011; cited from earlier work
[3] = humans ref Ripa et al., 2018; cited from earlier work

| SMILES | inhibition of IL-6 release in A549 cells [1] | inhibition of IFN-γ release in human whole blood [2] | t½ [3] |
| --- | --- | --- | --- |
| Cc1ncccc1NC(=O)c1ccc2c(c1)CC[C@@H]1C[C@@](O)(C(F)(F)F)CC[C@@]21Cc1ccccc1 [dagrocorat] | 78% | 60–70% | – |
| CC(C)[C@H](NC(=O)C(C)(F)F)[C@H](Oc1ccc2c(cnn2-c2ccc(=O)n(C)c2)c1)c1ccccc1 [mizacorat] | – | – | ~5 h |
